Experiments:
[1] = tested on: subgenomic HCV 1b replicon; assay: HCV RNA replication in Huh7 cells containing a subgenomic HCV 1b replicon; assay type: cell-based, HCV genotype 1b; conditions: for decrease of activity on introduction of torsion angle in the linker: one range stated for the group of compounds
HCV [2] = conditions: clinical trials, at 24 h following a single dose of 10 mg; cited from earlier work
HCV [3] = conditions: cited from earlier work

In the case of COC(=O)N[C@H](C(=O)N1CCC[C@H]1c1ncc(-c2ccc(-c3ccc(-c4ccc(-c5cnc([C@@H]6CCCN6C(=O)[C@@H](NC(=O)OC)C(C)C)[nH]5)cc4)s3)cc2)[nH]1)C(C)C [Compound 11d], the “decrease of activity on introduction of torsion angle in the linker” value (“decrease of activity” for short) ([1]; HCV 1b replicon) was 16- to 15,000 fold.

With COC(=O)N[C@H](C(=O)N1CCC[C@H]1c1ncc(-c2ccc(-c3ccc(-c4ccc(-c5cnc([C@@H]6CCCN6C(=O)[C@@H](NC(=O)OC)C(C)C)[nH]5)cc4)cc3)cc2)[nH]1)C(C)C [Compound 11a] the “anti-HCV activity (in words)” value ([1]; HCV 1b replicon) was “low picomolar range” and the “therapeutic index CC50/EC50” value ([1]; HCV replicon assay) was “over four million”.

With COC(=O)N[C@H](C(=O)N1CCC[C@H]1c1ncc(-c2ccc(-c3cn(-c4ccc(-c5cnc([C@@H]6CCCN6C(=O)[C@@H](NC(=O)OC)C(C)C)[nH]5)cc4)nn3)cc2)[nH]1)C(C)C [Compound 17] the “decrease of activity” value ([1]; HCV 1b replicon) was 16- to 15,000 fold.

With COC(=O)N[C@H](C(=O)N1CCC[C@H]1c1ncc(-c2ccc(-c3ccc(-c4ccc(-c5ccc(-c6cnc([C@@H]7CCCN7C(=O)[C@@H](NC(=O)OC)C(C)C)[nH]6)cc5)cc4)cc3)cc2)[nH]1)C(C)C [Compound 11e] the “loss of activity at the EC50 level compared to BMS-790052” value ([1]; HCV 1b replicon) was 37 fold.

In the case of COC(=O)N[C@H](C(=O)N1CCC[C@H]1c1ncc(-c2ccc(NS(=O)(=O)c3ccc(-c4cnc([C@@H]5CCCN5C(=O)[C@@H](NC(=O)OC)C(C)C)[nH]4)cc3)cc2)[nH]1)C(C)C [Compound 5c], the “decrease of activity” value ([1]; HCV 1b replicon) was 16- to 15,000 fold.

For COC(=O)N[C@H](C(=O)N1CCC[C@H]1c1ncc(-c2ccc(-c3ccc(-c4ccc(-c5cnc([C@@H]6CCCN6C(=O)[C@@H](NC(=O)OC)C(C)C)[nH]5)cc4)nc3)cc2)[nH]1)C(C)C [Compound 11b], the “anti-HCV activity (in words)” value ([1]; HCV 1b replicon) was “low picomolar range”.

In the case of COC(=O)N[C@H](C(=O)N1CCC[C@H]1c1ncc(-c2ccc(Oc3ccc(-c4cnc([C@@H]5CCCN5C(=O)[C@@H](NC(=O)OC)C(C)C)[nH]4)cc3)cc2)[nH]1)C(C)C [Compound 5b], the “decrease of activity” value ([1]; HCV 1b replicon) was 16- to 15,000 fold.

For COC(=O)N[C@H](C(=O)N1CCC[C@H]1c1ncc(-c2ccc(-c3ccc(-c4cnc([C@@H]5CCCN5C(=O)[C@@H](NC(=O)OC)C(C)C)[nH]4)s3)cc2)[nH]1)C(C)C [Compound 5d], the “anti-HCV activity (in words)” value ([1]; HCV 1b replicon) was “almost complete loss of anti-HCV activity”.

In the case of COC(=O)N[C@H](C(=O)N1CCC[C@H]1c1ncc(-c2ccc(-c3ccc(-c4cnc([C@@H]5CCCN5C(=O)[C@@H](NC(=O)OC)C(C)C)[nH]4)cc3)cc2)[nH]1)C(C)C [BMS-790052], the “reduction in HCV RNA” value (HCV [2]) is listed as “over 3 log10 IU/mL” and the “median effective antiviral concentration (EC50) in vitro” value (HCV [3]) is listed as “picomolar range”.

For COC(=O)N[C@H](C(=O)N1CCC[C@H]1c1ncc(-c2ccc(-c3cccc(-c4ccc(-c5cnc([C@@H]6CCCN6C(=O)[C@@H](NC(=O)OC)C(C)C)[nH]5)cc4)c3)cc2)[nH]1)C(C)C [Compound 11c], the “decrease of activity” value ([1]; HCV 1b replicon) was 16- to 15,000 fold.
